Experiments:
COR-L279 = assay: SANGER: Inhibition of human COR-L279 cell growth in a cell viability assay.; type: functional, cell-based
CPC-N = assay: cells; type: functional, cell-based; conditions: Homo sapiens;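 further: growth inhibition of CPC-N cells, with a cell viability assay as the readout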
Description: SANGER: Inhibition of human CPC-N cell growth in a cell viability assay.

Calu-1 = assay: SANGER: Inhibition of human Calu-1 cell growth in a cell viability assay.; type: functional, cell-based
DG-75 = assay: cells; type: functional, cell-based; conditions: Homo sapiens;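 further: growth inhibition of DG-75 cells, read out with a cell viability assay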
Description: SANGER: Inhibition of human DG-75 cell growth in a cell viability assay.

DMS-53 = assay: cells; type: functional, cell-based, Homo sapiens; conditions: Homo sapiens, DMS-53;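 further: cell viability assay measuring growth inhibition of human DMS-53 cells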
Description: SANGER: Inhibition of human DMS-53 cell growth in a cell viability assay.

DV-90 = assay: cells; type: functional, cell-based; conditions: Homo sapiens;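 further: Read-out is a viability assay, with IC50 reflecting the drop in DV-90 cell growth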
Description: SANGER: Inhibition of human DV-90 cell growth in a cell viability assay.

EFE-184 = assay: cells; type: functional, cell-based; conditions: Homo sapiens
Description: SANGER: Inhibition of human EFE-184 cell growth in a cell viability assay.

EHEB = assay: cells; type: functional, cell-based; conditions: Homo sapiens;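 further: growth inhibition of human EHEB cells, read out with a cell viability assay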
Description: SANGER: Inhibition of human EHEB cell growth in a cell viability assay.

EW-7 = assay: SANGER: Inhibition of human EW-7 cell growth in a cell viability assay.; type: functional, cell-based; conditions: Homo sapiens, EW-7
GDM-1 = assay: cells; type: functional, cell-based; conditions: Homo sapiens;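 further: cell viability readout used to measure growth inhibition of human GDM-1 cells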
Description: SANGER: Inhibition of human GDM-1 cell growth in a cell viability assay.

HCC1143 = assay: cells; type: functional, cell-based; conditions: Homo sapiens;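 further: growth inhibition of human HCC1143 cells, read out with a cell viability assay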
Description: SANGER: Inhibition of human HCC1143 cell growth in a cell viability assay.

HCC1599 = assay: cells; type: functional, cell-based; conditions: Homo sapiens;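 further: growth inhibition of HCC1599 cells, read out in a cell viability assay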
Description: SANGER: Inhibition of human HCC1599 cell growth in a cell viability assay.

HCT-15 = assay: cells; type: functional, cell-based, Homo sapiens; conditions: Homo sapiens, HCT-15;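 further: cell viability readout, IC50 reflecting suppression of HCT-15 cell growth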
Description: SANGER: Inhibition of human HCT-15 cell growth in a cell viability assay.

IM-9 = assay: SANGER: Inhibition of human IM-9 cell growth in a cell viability assay.; type: functional, cell-based
IPC-298 = assay: SANGER: Inhibition of human IPC-298 cell growth in a cell viability assay.; type: functional, cell-based
JIYOYE = assay: cells; type: functional, cell-based; conditions: Homo sapiens
Description: SANGER: Inhibition of human JiyoyeP-2003 cell growth in a cell viability assay.

LOUCY = assay: cells; type: functional, cell-based; conditions: Homo sapiens;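 further: growth inhibition of human LOUCY cells, read out with a cell viability assay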
Description: SANGER: Inhibition of human LOUCY cell growth in a cell viability assay.

LU-165 = assay: cells; type: functional, cell-based; conditions: Homo sapiens
Description: SANGER: Inhibition of human LU-165 cell growth in a cell viability assay.

MDA-MB-134-VI = assay: cells; type: functional, cell-based; conditions: Homo sapiens
Description: SANGER: Inhibition of human MDA-MB-134-VI cell growth in a cell viability assay.

MDA-MB-468 = assay: cells; type: functional, cell-based; conditions: Homo sapiens
Description: SANGER: Inhibition of human MDA-MB-468 cell growth in a cell viability assay.

MEL-JUSO = assay: cells; type: functional, cell-based, Homo sapiens; conditions: Homo sapiens, MEL-JUSO;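 further: growth inhibition of human MEL-JUSO cells, read out with a cell viability assay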
Description: SANGER: Inhibition of human MEL-JUSO cell growth in a cell viability assay.

MES-SA = assay: cells; type: functional, cell-based, Homo sapiens; conditions: Homo sapiens, MES-SA;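 further: growth inhibition of human MES-SA cells, read out with a cell viability assay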
Description: SANGER: Inhibition of human MES-SA cell growth in a cell viability assay.

MFE-296 = assay: SANGER: Inhibition of human MFE-296 cell growth in a cell viability assay.; type: functional, cell-based
NCI-H1573 = assay: cells; type: functional, cell-based; conditions: Homo sapiens;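 further: growth inhibition of NCI-H1573 cells, read out with a cell viability assay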
Description: SANGER: Inhibition of human NCI-H1573 cell growth in a cell viability assay.

NCI-H1618 = assay: cells; type: functional, cell-based; conditions: Homo sapiens;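 further: growth inhibition of human NCI-H1618 cells, measured by a cell viability assay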
Description: SANGER: Inhibition of human NCI-H1618 cell growth in a cell viability assay.

NCI-H1734 = assay: cells; type: functional, cell-based; conditions: Homo sapiens;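 further: growth inhibition of human NCI-H1734 cells, read out with a cell viability assay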
Description: SANGER: Inhibition of human NCI-H1734 cell growth in a cell viability assay.

NCI-H187 = assay: cells; type: functional, cell-based; conditions: Homo sapiens;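 further: growth inhibition of NCI-H187 cells, read out as cell viability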
Description: SANGER: Inhibition of human NCI-H187 cell growth in a cell viability assay.

NCI-H2227 = assay: cells; type: functional, cell-based; conditions: Homo sapiens;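 further: growth inhibition of the human cell line, read out with a cell viability assay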
Description: SANGER: Inhibition of human NCI-H2227 cell growth in a cell viability assay.

NCI-H322M = assay: cells; type: functional, cell-based; conditions: Homo sapiens;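 further: cell viability assay measuring inhibition of growth of human NCI-H322M cells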
Description: SANGER: Inhibition of human NCI-H322M cell growth in a cell viability assay.

NCI-H716 = assay: cells; type: functional, cell-based; conditions: Homo sapiens;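 further: growth inhibition of human NCI-H716 cells, measured by a cell viability assay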
Description: SANGER: Inhibition of human NCI-H716 cell growth in a cell viability assay.

OPM-2 = assay: cells; type: functional, cell-based; conditions: Homo sapiens;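 further: growth of OPM-2 cells measured with a viability assay, IC50 for suppression of proliferation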
Description: SANGER: Inhibition of human OPM-2 cell growth in a cell viability assay.

RT-4 = assay: SANGER: Inhibition of human RT4 cell growth in a cell viability assay.; type: functional, cell-based; conditions: Homo sapiens, RT-4
SK-CO-1 = assay: cells; type: functional, cell-based; conditions: Homo sapiens;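 further: growth inhibition of SK-CO-1 cells, determined by a viability readout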
Description: SANGER: Inhibition of human SK-CO-1 cell growth in a cell viability assay.

SNG-M = assay: cells; type: functional, cell-based; conditions: Homo sapiens
Description: SANGER: Inhibition of human SNG-M cell growth in a cell viability assay.

SNU-475 = assay: cells; type: functional, cell-based; conditions: Homo sapiens
Description: SANGER: Inhibition of human SNU-475 cell growth in a cell viability assay.

SU-DHL-1 = assay: SANGER: Inhibition of human SU-DHL-1 cell growth in a cell viability assay.; type: functional, cell-based
23132-87 = assay: cells; type: functional, cell-based, Homo sapiens; conditions: Homo sapiens
Description: SANGER: Inhibition of human 23132-87 cell growth in a cell viability assay.

C-4-II = assay: SANGER: Inhibition of human C-4-II cell growth in a cell viability assay.; type: functional, cell-based
THP-1 = assay: cells; type: functional, cell-based; conditions: Homo sapiens;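 further: growth inhibition of THP-1 cells, read out via a cell viability assay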
Description: SANGER: Inhibition of human THP-1 cell growth in a cell viability assay.

TT = assay: cells; type: functional, cell-based; conditions: Homo sapiens
Description: SANGER: Inhibition of human TT cell growth in a cell viability assay.

TUR = assay: cells; type: functional, cell-based; conditions: Homo sapiens;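 further: growth inhibition of human TUR cells, read out with a cell viability assay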
Description: SANGER: Inhibition of human TUR cell growth in a cell viability assay.

YT = assay: cells; type: functional, cell-based; conditions: Homo sapiens
Description: SANGER: Inhibition of human YT cell growth in a cell viability assay.

CCF-STTG1 = assay: cells; type: functional, cell-based; conditions: Homo sapiens;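 further: growth inhibition of human CCF-STTG1 cells, determined with a cell viability read-out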
Description: SANGER: Inhibition of human CCF-STTG1 cell growth in a cell viability assay.

EW-12 = assay: SANGER: Inhibition of human EW-12 cell growth in a cell viability assay.; type: functional, cell-based
NCI-H128 = assay: SANGER: Inhibition of human NCI-H128 cell growth in a cell viability assay.; type: functional, cell-based
SKM-1 = assay: SANGER: Inhibition of human SKM-1 cell growth in a cell viability assay.; type: functional, cell-based

C=CCc1cccc(/C=N/NC(=O)CN2CCN(Cc3ccccc3)CC2)c1O [PAC-1]
IC50 (COR-L279): > 2.56 µM
IC50 (CPC-N): > 2.56 µM
IC50 (Calu-1): > 2.56 µM
IC50 (DG-75): > 2.56 µM
IC50 (DMS-53): > 2.56 µM
IC50 (DV-90): > 2.56 µM
IC50 (EFE-184): > 2.56 µM
IC50 (EHEB): > 2.56 µM
IC50 (EW-7): > 2.56 µM
IC50 (GDM-1): > 2.56 µM
IC50 (HCC1143): > 2.56 µM
IC50 (HCC1599): > 2.56 µM
IC50 (HCT-15): 1.58 µM
IC50 (IM-9): > 2.56 µM
IC50 (IPC-298): > 2.56 µM
IC50 (JIYOYE): 1.1 µM
IC50 (LOUCY): 0.823 µM
IC50 (LU-165): > 2.56 µM
IC50 (MDA-MB-134-VI): > 2.56 µM
IC50 (MDA-MB-468): > 2.56 µM
IC50 (MEL-JUSO): > 2.56 µM
IC50 (MES-SA): > 2.56 µM
IC50 (MFE-296): > 2.56 µM
IC50 (NCI-H1573): > 2.56 µM
IC50 (NCI-H1618): > 2.56 µM
IC50 (NCI-H1734): > 2.56 µM
IC50 (NCI-H187): > 2.56 µM
IC50 (NCI-H2227): > 2.56 µM
IC50 (NCI-H322M): > 2.56 µM
IC50 (NCI-H716): > 2.56 µM
IC50 (OPM-2): > 2.56 µM
IC50 (RT-4): > 2.56 µM
IC50 (SK-CO-1): > 2.56 µM
IC50 (SNG-M): 1.22 µM
IC50 (SNU-475): > 2.56 µM
IC50 (SU-DHL-1): > 2.56 µM
IC50 (23132-87): > 2.56 µM
IC50 (C-4-II): > 2.56 µM
IC50 (THP-1): > 2.56 µM
IC50 (TT): > 2.56 µM
IC50 (TUR): > 2.56 µM
IC50 (YT): > 2.56 µM
IC50 (CCF-STTG1): > 2.56 µM

Cc1ccc(Nc2nccc(N(C)c3ccc4c(C)n(C)nc4c3)n2)cc1S(N)(=O)=O [PAZOPANIB]
IC50 (COR-L279): > 8 µM
IC50 (CPC-N): > 8 µM
IC50 (Calu-1): > 8 µM
IC50 (DG-75): > 8 µM
IC50 (DMS-53): > 8 µM
IC50 (DV-90): > 8 µM
IC50 (EFE-184): > 8 µM
IC50 (EHEB): > 8 µM
IC50 (EW-7): > 8 µM
IC50 (GDM-1): 0.104 µM
IC50 (HCC1143): > 8 µM
IC50 (HCC1599): > 8 µM
IC50 (HCT-15): > 8 µM
IC50 (IM-9): > 8 µM
IC50 (IPC-298): > 8 µM
IC50 (JIYOYE): > 8 µM
IC50 (LOUCY): > 8 µM
IC50 (LU-165): > 8 µM
IC50 (MDA-MB-134-VI): > 8 µM
IC50 (MDA-MB-468): > 8 µM
IC50 (MEL-JUSO): > 8 µM
IC50 (MES-SA): > 8 µM
IC50 (MFE-296): 0.59 µM
IC50 (NCI-H1573): 5.97 µM
IC50 (NCI-H1618): > 8 µM
IC50 (NCI-H1734): > 8 µM
IC50 (NCI-H187): > 8 µM
IC50 (NCI-H2227): > 8 µM
IC50 (NCI-H322M): > 8 µM
IC50 (NCI-H716): 2.32 µM
IC50 (OPM-2): > 8 µM
IC50 (RT-4): > 8 µM
IC50 (SK-CO-1): > 8 µM
IC50 (SNG-M): 4.09 µM
IC50 (SNU-475): > 8 µM
IC50 (SU-DHL-1): > 8 µM
IC50 (23132-87): > 8 µM
IC50 (C-4-II): > 8 µM
IC50 (THP-1): > 8 µM
IC50 (TT): 5.66 µM
IC50 (TUR): > 8 µM
IC50 (YT): > 8 µM
IC50 (CCF-STTG1): 1.05 µM

CO[C@H]1C[C@@H]2CC[C@@H](C)[C@@](O)(O2)C(=O)C(=O)N2CCCC[C@H]2C(=O)O[C@H]([C@H](C)C[C@@H]2CC[C@@H](O)[C@H](OC)C2)CC(=O)[C@H](C)/C=C(\C)[C@@H](O)[C@@H](OC)C(=O)[C@H](C)C[C@H](C)/C=C/C=C/C=C/1C [SIROLIMUS]
IC50 (COR-L279): 0.0873 µM
IC50 (CPC-N): > 0.1 µM
IC50 (DG-75): > 0.1 µM
IC50 (EHEB): > 0.1 µM
IC50 (EW-12): > 0.1 µM
IC50 (GDM-1): > 0.1 µM
IC50 (HCC1599): > 0.1 µM
IC50 (IM-9): > 0.1 µM
IC50 (JIYOYE): 0.0109 µM
IC50 (LOUCY): > 0.1 µM
IC50 (LU-165): > 0.1 µM
IC50 (MDA-MB-134-VI): 0.044 µM
IC50 (NCI-H128): > 0.1 µM
IC50 (NCI-H187): > 0.1 µM
IC50 (NCI-H322M): > 0.1 µM
IC50 (NCI-H716): > 0.1 µM
IC50 (OPM-2): 0.00415 µM
IC50 (SKM-1): > 0.1 µM
IC50 (SU-DHL-1): > 0.1 µM
IC50 (THP-1): > 0.1 µM
IC50 (TUR): > 0.1 µM
IC50 (YT): > 0.1 µM

Cn1cncc1[C@@](N)(c1ccc(Cl)cc1)c1ccc2c(c1)c(-c1cccc(Cl)c1)cc(=O)n2C [TIPIFARNIB]
IC50 (COR-L279): 7.95 µM
IC50 (CPC-N): 14.8 µM
IC50 (Calu-1): 0.181 µM
IC50 (DG-75): > 16 µM
IC50 (DMS-53): > 16 µM
IC50 (DV-90): > 16 µM
IC50 (EFE-184): 4.58 µM
IC50 (EHEB): > 16 µM
IC50 (EW-7): > 16 µM
IC50 (GDM-1): 0.352 µM
IC50 (HCC1143): 13.3 µM
IC50 (HCC1599): > 16 µM
IC50 (HCT-15): 0.327 µM
IC50 (IM-9): > 16 µM
IC50 (IPC-298): 5.82 µM
IC50 (JIYOYE): 9.18 µM
IC50 (LOUCY): > 16 µM
IC50 (LU-165): > 16 µM
IC50 (MDA-MB-134-VI): > 16 µM
IC50 (MDA-MB-468): > 16 µM
IC50 (MEL-JUSO): 0.0234 µM
IC50 (MES-SA): 4.61 µM
IC50 (MFE-296): 1.45 µM
IC50 (NCI-H1573): 5.9 µM
IC50 (NCI-H1618): > 16 µM
IC50 (NCI-H1734): 14.5 µM
IC50 (NCI-H187): > 16 µM
IC50 (NCI-H2227): > 16 µM
IC50 (NCI-H322M): > 16 µM
IC50 (NCI-H716): > 16 µM
IC50 (OPM-2): > 16 µM
IC50 (RT-4): 10.9 µM
IC50 (SK-CO-1): 13 µM
IC50 (SNG-M): 0.204 µM
IC50 (SNU-475): > 16 µM
IC50 (SU-DHL-1): 7.27 µM
IC50 (23132-87): 6.7 µM
IC50 (C-4-II): 6.14 µM
IC50 (THP-1): > 16 µM
IC50 (TT): > 16 µM
IC50 (TUR): 0.871 µM
IC50 (YT): 1.65 µM
IC50 (CCF-STTG1): > 16 µM

From ChEMBL document CHEMBL1201861, “Genomics of Drug Sensitity in Cancer screening data, Wellcome Trust Sanger Institute”
